In patent publication US12533439B2, “Antibacterial wound treatments with clot-promoting properties” (University of Georgia Research Foundation, Inc., priority 2019, dated 2026):

Columns and labels:
[1] = TXA administered within 1 hour of injury; cited from earlier work
[2] = system: 3T3 mouse fibroblast cells; test: WST-8 (CCK-8) cell viability assay on dressing leachates; type: cell-based; conditions: 24-hour leachate
Description: The manufacturer's (Sigma-Aldrich) protocol was followed while using CCK-8 kit which utilizes highly water-soluble tetrazolium salt. In the live cells, WST-8 [2-(2-methoxy-4-nitrophenyl)-3-(4-nitrophenyl)-5-(2,4-disulfophenyl)-2H-tetrazolium monosodium salt] is reduced by dehydrogenases to give formazan (an orange-colored product), which can be detected at 450 nm. This means that a noncytotoxic material should generate a higher level of formazan than a relatively cytotoxic material because of WST-8 reduction. To obtain the leachate, samples weighing 10 mg each were added to 10 ml to in the DMEM medium for 24 hours at 37° C. The leachate was later used to grow the cells.
Seeding of cells. A culture of the fibroblast cells was grown in a 75 cm2 T-flask with Dulbecco modified Eagle's medium (DMEM) with 4.5 g/L-glutamine, 4.5 g/L glucose, 1% penicillin-streptomycin and 10% fetal bovine serum (FBS) after thawing a cryopreserved vial of fibroblast cells.^11 The cells could proliferate in an incubator which provided a physiological condition for their growth (5% CO2, 37° C.) until the confluence reached around 80-90%. […] The formula below was used to calculate cell viability.^12
To ensure that the components of wound dressing—CarboSil®, SNAP, TXA, and propolis—are not cytotoxic to the mammalian cells, a 24-hour cytotoxicity study was conducted on mouse fibroblast cells.

| SMILES | reduction in deaths [1] [%] | cytotoxicity (relative cell viability) [2] |
| --- | --- | --- |
| NC[C@H]1CC[C@H](C(=O)O)CC1 [TXA, tranexamic acid] | 32 |  |
| CC(=O)N[C@H](C(=O)O)C(C)(C)SN=O (racemic) [SNAP, S-nitroso-N-acetylpenicillamine] |  | non-cytotoxic |
